The values below come from PubChem BioAssay AID1845198 (Molecular Pharmacology Branch, DTP, NCI, 2023).

Values joined by “and” are separate entries in the source; they are usually repeats but may differ in a detail not shown here. Equal entries are not always repeated. Where only a bound is given, the exact number is not on record here.

This assay deals with 425362-245-T-J1 tumor spheroids, viability % test/control. Briefly: Anticancer human tumor 425362-245-T-J1 patient-derived melanoma cell line growth inhibition. The conditions noted are these: spheroids with HUVEC and MSC; for viability, T/C: stronger effect = lower value. The source says:
Multicellular complex tumor spheroid response to DNA repair inhibitors in combination with DNA-damaging drugs
This study explores the anticancer activities of DNA-damaging drugs and inhibitors of DNA damage repair, both as single agents and in combinations. Complex tumor spheroids comprised of malignant cells, endothelial cells and mesenchymal stem cells served as an in vitro model for human solid tumors. This model system incorporates physiologically relevant features and patient-derived or established malignant cell lines with clinically relevant genetic alterations from many tumor types. Twenty-six patient-derived or established malignant cell lines were evaluated representing sarcoma, melanoma, small cell lung cancer (SCLC), non-small cell lung cancer (NSCLC), as well as bladder, ovarian and pancreatic cancers. The concentration ranges selected for each drug and investigational agent were based upon clinically achievable concentrations if the clinical Cmax of the agent was known.
Compounds. The drugs and compounds olaparib (NSC753686), talazoparib (NSC767125), berzosertib (NSC777718), elimusertib (NSC800525), nedisertib (NSC802822), VX-984 (NSC792969), AZD-1390 (NSC803789), temozolomide (NSC362856), topotecan (NSC609699), trabectedin (NSC813783), staurosporine (NSC755774), and gemcitabine (NSC613327) were obtained from the National Cancer Institute (NCI) Developmental Therapeutics Program Chemical Repository. The FDA-approved anticancer drug set is available from the Developmental Therapeutics Program at https://dtp.cancer.gov/organization/dscb/obtaining/available_plates.htm. […] The stock solutions were prepared in dimethyl sulfoxide (DMSO, Sigma-Aldrich, St. Louis, MO, cat. D2650) at 400-fold the tested concentration and stored at -70 degrees C. Prior to their use, the stock solutions were diluted in fresh medium and the final DMSO concentration in the assay was 0.25% (v/v). All drugs and investigational agents were tested over a range starting from a high concentration at or near the clinical Cmax and decreasing in half-log increments. If the clinical Cmax for an agent had not been determined, the highest concentration tested was 10 microM.
Cell Lines. The patient-derived cancer cell (PDC) lines: 156681-154-R-J1-PDC, 283228-195-R-J1-PDC, 287954-098-R-J1-PDC, 292921-168-R-J2-PDC, 349418-098-R-PDC, 425362-245-T-J1-PDC, 556581-035-R-J1-PDC, and BL0293-F563-PDC were received from the NCI Patient-Derived Models Repository (PDMR, https://pdmr.cancer.gov). The established cell lines HS-SY-2 (RRID:CVCL_8719), MPNST, and SYO-1 (RRID:CVCL_7146) were obtained from the Sloan Kettering Institute. The alveolar soft parts sarcoma cell line ASPS-1 (RRID:CVCL_S738) was established at the NCI and grown from internal seed stocks. The following established cell lines were purchased from the American Type Culture Collection (ATCC, Manassas, VA): G-401 (ATCC, cat. CRL-1441, RRID:CVCL_0270), SW982 (ATCC, cat. HTB-93, RRID:CVCL_1734), VA-ES-BJ (ATCC, cat. CRL-2138, RRID:CVCL_1785), NCI-H719 (ATCC, cat. CRL-5837, RRID:CVCL_1582), NCI-H196 (ATCC, cat. CRL-5823, RRID:CVCL_1509), NCI-H841 (ATCC, cat. CRL-5845, RRID:CVCL_1595), NCI-H1618 (ATCC, cat. CRL-5879, RRID:CVCL_1480), NCI-H1876 (ATCC, cat. CRL-5902, RRID:CVCL_1503), DMS 114 (ATCC, cat. CRL-2066; RRID:CVCL_1174), NCI-H211 (ATCC, cat. CRL-5824; RRID:CVCL_1529), and SW 1271 (ATCC, cat. CRL-2177, RRID:CVCL_1716). The small cell lung cancer cell line COR-L88 was purchased from Sigma-Aldrich (cat. 92031917-1VL, RRID:CVCL_1141). The non-small cell lung cancer cell lines NCI-H226 (RRID:CVCL_1544) and NCI-H322M (RRID:CVCL_1557) were established at the NCI and grown from internal seed stocks. Pooled donor human umbilical vein endothelial cells (HUVEC, Lonza, cat. CC-2519) and human mesenchymal stem cells (hMSC, Lonza, cat. PT-2501) were purchased from Lonza (Walkersville, MD).
Cell Culture. All cells were maintained in an incubator at 37 degrees C and 5% CO2 with 95% humidity. […]

[1] abbreviates: compound alone, run of 10/25/2019.
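Also: spheroids exposed to agents for 7 days.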
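For viability, T/C in this document: 100% = DMSO vehicle control viability.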

The term viability, T/C denotes the ratio of treated to control. Broadly, the IC50 is the midpoint of a concentration-inhibition curve. For the compound `CC(C)n1c(=O)n(C)c2cnc3cc(F)c(-c4ccc(OCCCN5CCCCC5)nc4)cc3c21`, the viability, T/C by setting is: (compound 0.0316 µM) 56.5% and 67.4% and 67.2%; (compound 0.1 µM) 43.4% and 60.3% and 69.2%; (compound 0.316 µM) 44.1% and 39.9% and 36.1%; (compound 1 µM) 27.5% and 20.1% and 23.2%; (compound 3.16 µM) 17.4% and 14.7% and 14.3%; (compound 10 µM) 7.66% and 5.49% and 5.26%. The IC50 (curve of compound) is 72.1 nM and 175 nM and 198 nM.

Regarding `CC1COCCN1c1cc(-c2ccnn2C)c2ccnc(-c3ccn[nH]3)c2n1` (stereo not drawn), the viability, T/C reads like this: (compound 0.0316 µM) 34.4% and 43.6% and 45.5%; (compound 0.1 µM) 13.7% and 12.7% and 17.3%; (compound 0.316 µM) 7.51% and 9.92% and 13.6%; (compound 1 µM) 6.44% and 8.46% and 7.34%; (compound 3.16 µM) 6.81% and 10.8% and 7.05%; (compound 10 µM) 8.79% and 9.71% and 7.27%. The IC50 (curve of compound) is below 31.6 nM.

With `CC[C@@]1(O)C(=O)OCc2c1cc1n(c2=O)Cc2cc3c(CN(C)C)c(O)ccc3nc2-1`, the viability, T/C is, setting by setting: (compound 0.00949 µM) 89.3% [middle of 10 runs]; (compound 0.03 µM) 38.3% [middle of 10 runs]; (compound 0.0949 µM) 6.41% [middle of 10 runs]; (compound 0.3 µM) 1.78% [middle of 10 runs]. The IC50 (compound alone, run of 10/17/2019) is 21.5 nM [middle of 5 runs] and the IC50 under setting [1] was 23.4 nM [middle of 4 runs].

Take `CNCc1ccc(-c2cc(-c3nc(-c4ccc(S(=O)(=O)C(C)C)cc4)cnc3N)on2)cc1`: the viability, T/C by setting is: (compound 0.00949 µM) 93.8% and 103% and 111%; (compound 0.03 µM) 103% and 83.1% and 105%; (compound 0.0949 µM) 44.3% and 46.4% and 79.6%; (compound 0.3 µM) 8.53% and 6.26% and 5.89%; (compound 0.949 µM) 3.67% and 5.06% and 2.41%; (compound 3 µM) 0.18% and 0.4% and 0.23%. Also, the IC50 (curve of compound) is 84 nM and 79.5 nM and 151 nM.

On to `COc1cc(C)[nH]c(=O)c1CN1CCc2c(Cl)cc(C(OC)C3COC3)c(Cl)c2C1=O` (stereo not drawn), for which the viability, T/C is, setting by setting: (compound 0.0316 µM) 107% and 103% and 97%; (compound 0.1 µM) 103% (2×) and 108%; (compound 0.316 µM) 106% and 97.8% and 99.9%; (compound 1 µM) 95.9% and 103% and 98.4%; (compound 3.16 µM) 97.4% and 104% and 96.1%; (compound 10 µM) 89.9% and 92.6% and 88.8%. The IC50 (curve of compound) was above 10000 nM.

As for `COc1cc2c(cc1O)CCNC21CSC2c3c(OC(C)=O)c(C)c4c(c3C(COC1=O)N1C(O)C3Cc5cc(C)c(OC)c(O)c5C(C21)N3C)OCO4` (stereo not drawn), the viability, T/C was 98% [middle of 10 runs] (compound 30 pM); 95.6% [middle of 10 runs] (compound 94.9 pM); 40.8% [middle of 10 runs] (compound 0.0003 µM); 0.32% [middle of 9 runs] (compound 0.000949 µM); 0.21% [middle of 9 runs] (compound 0.003 µM). Under setting [1], the IC50 is 0.243 nM [middle of 9 runs].

For the compound `Cc1cc(C)c(CNC(=O)c2cc(-c3ccc(CN4CCOCC4)cc3)cc3c2cnn3C2CCCC2)c(=O)[nH]1`, the viability, T/C runs as follows: (compound 0.0316 µM) 101% and 97.2% and 92.7%; (compound 0.1 µM) 93% and 116% and 102%; (compound 0.316 µM) 103% and 97.9% and 84.5%; (compound 1 µM) 100% and 80.2% and 86.5%; (compound 3.16 µM) 81.8% and 49.8% and 46.3%; (compound 10 µM) 42.6% and 15.2% and 14.8%. For the same compound, the IC50 (curve of compound) is 8060 nM and 3010 nM and 2860 nM.

`Cc1sc2c(c1C)C(c1ccc(Cl)cc1)=NC(CC(=O)Nc1ccc(O)cc1)c1nnc(C)n1-2` (stereo not drawn): the viability, T/C by setting is: (compound 0.00949 µM) 97.8% and 84.1% and 108%; (compound 0.03 µM) 91.2% and 76% and 93%; (compound 0.0949 µM) 49.5% and 47.9% and 42.8%; (compound 0.3 µM) 12.8% and 12% and 8.15%; (compound 0.949 µM) 5.36% and 3.14% and 2.44%; (compound 3 µM) 2.57% and 1.92% and 2.11%. Further, the IC50 (curve of compound) was 95.3 nM and 85.6 nM and 80.2 nM.

For the compound `Cn1ncnc1[C@H]1c2n[nH]c(=O)c3cc(F)cc(c23)N[C@@H]1c1ccc(F)cc1`, the viability, T/C (compound 0.00949 µM) is 74.9% and 69% and 59.1%; the viability, T/C (compound 0.03 µM) is 46.1% and 42.9% and 33.5%; the viability, T/C (compound 0.0949 µM) was 35.3% and 25.2% and 18.1%; the viability, T/C (compound 0.3 µM) is 16.1% and 14.1% and 15.6%; the viability, T/C (compound 0.949 µM) was 10.1% and 9.44% and 9.39%; the viability, T/C (compound 3 µM) is 3.22% and 2.7% and 1.7%. Besides, the IC50 (curve of compound) is 29 nM and 22 nM and 14.1 nM.

In the case of `[2H]c1nc(C)nc([2H])c1-c1cc(NC[C@@H](C)c2cccc3c(C(=O)NC)ccnc23)ncn1`, the viability, T/C runs as follows: (compound 0.0316 µM) 103% and 96.9% and 88.3%; (compound 0.1 µM) 97.1% and 90.8% and 81.5%; (compound 0.316 µM) 112% and 98.8% and 69.9%; (compound 1 µM) 108% and 104% and 63.5%; (compound 3.16 µM) 110% and 96.8% and 52.8%; (compound 10 µM) 103% and 96.5% and 25.2%. Besides, the IC50 (curve of compound) was > 10000 nM and 2820 nM.
